Experiments:
[1] = target: 5-hydroxytryptamine receptor 7 (Homo sapiens, UniProt P34969); assay: Displacement of [3H]-5-CT from human recombinant 5-HT7 receptor expressed in HEK293 cell membrane after 1 hr by Microbeta scintillation counting analysis; format: cell membranes
[2] = test system: HEK293; assay: Selectivity ratio of Ki for alpha1 adrenergic receptor in rat cerebral cortex to Ki for human recombinant 5-HT7 receptor expressed in HEK293 cell membrane; format: cell-based
[3] = target: T1, 5-hydroxytryptamine receptor 1A (Homo sapiens, UniProt P08908); assay: Displacement of [3H]-8-OH-DPAT from human recombinant 5-HT1A receptor expressed in HEK293 cell membrane after 1 hr by Microbeta scintillation counting analysis; format: cell membranes
T1 sequence (P08908 whole entry): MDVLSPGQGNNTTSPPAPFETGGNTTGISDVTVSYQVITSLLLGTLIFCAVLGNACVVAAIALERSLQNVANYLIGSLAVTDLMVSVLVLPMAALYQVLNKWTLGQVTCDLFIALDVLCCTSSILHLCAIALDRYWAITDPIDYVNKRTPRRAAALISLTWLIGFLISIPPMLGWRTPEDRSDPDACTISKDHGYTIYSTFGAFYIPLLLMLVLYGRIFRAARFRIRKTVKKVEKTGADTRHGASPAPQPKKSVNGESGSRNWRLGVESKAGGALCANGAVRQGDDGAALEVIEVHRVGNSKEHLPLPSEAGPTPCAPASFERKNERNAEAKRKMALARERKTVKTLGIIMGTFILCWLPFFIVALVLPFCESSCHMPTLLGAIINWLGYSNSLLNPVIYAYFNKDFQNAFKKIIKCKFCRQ

[4] = target: T2, Adrenergic receptor alpha-1 (Rattus norvegicus, UniProt P15823+P23944+P43140); assay: Displacement of [3H]prazosin from alpha1 adrenergic receptor in rat cerebral cortex after 30 mins by Microbeta scintillation counting analysis; format: tissue-based
T2 sequence (P15823 whole entry): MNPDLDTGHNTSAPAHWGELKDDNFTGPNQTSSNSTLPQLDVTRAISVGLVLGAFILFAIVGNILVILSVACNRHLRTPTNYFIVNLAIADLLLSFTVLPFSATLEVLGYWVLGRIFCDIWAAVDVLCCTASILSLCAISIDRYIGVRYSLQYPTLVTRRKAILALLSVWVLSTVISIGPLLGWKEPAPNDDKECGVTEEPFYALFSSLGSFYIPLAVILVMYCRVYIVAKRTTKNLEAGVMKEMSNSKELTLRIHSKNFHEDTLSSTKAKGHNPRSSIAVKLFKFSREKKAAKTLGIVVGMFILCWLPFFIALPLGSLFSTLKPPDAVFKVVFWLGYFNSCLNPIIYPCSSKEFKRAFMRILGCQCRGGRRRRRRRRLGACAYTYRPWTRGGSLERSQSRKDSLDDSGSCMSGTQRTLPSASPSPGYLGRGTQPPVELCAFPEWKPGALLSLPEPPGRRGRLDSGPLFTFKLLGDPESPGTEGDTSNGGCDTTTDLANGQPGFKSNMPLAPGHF
T2 sequence (P23944 whole entry): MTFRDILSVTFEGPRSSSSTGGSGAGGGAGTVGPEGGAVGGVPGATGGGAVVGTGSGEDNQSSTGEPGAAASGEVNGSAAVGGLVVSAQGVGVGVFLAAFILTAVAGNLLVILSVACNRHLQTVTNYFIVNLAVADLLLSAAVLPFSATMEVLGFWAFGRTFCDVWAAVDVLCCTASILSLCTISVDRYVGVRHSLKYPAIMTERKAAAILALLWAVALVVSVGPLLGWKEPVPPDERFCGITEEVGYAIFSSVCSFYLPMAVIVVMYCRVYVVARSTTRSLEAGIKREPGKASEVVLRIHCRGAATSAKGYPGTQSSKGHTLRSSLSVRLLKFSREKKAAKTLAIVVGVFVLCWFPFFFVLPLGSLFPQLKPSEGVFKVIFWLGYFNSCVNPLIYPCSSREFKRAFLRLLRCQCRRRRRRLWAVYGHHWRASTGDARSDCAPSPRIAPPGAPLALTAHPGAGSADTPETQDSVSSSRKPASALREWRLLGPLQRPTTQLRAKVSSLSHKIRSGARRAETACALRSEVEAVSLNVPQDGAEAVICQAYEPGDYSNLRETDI
T2 sequence (P43140 whole entry): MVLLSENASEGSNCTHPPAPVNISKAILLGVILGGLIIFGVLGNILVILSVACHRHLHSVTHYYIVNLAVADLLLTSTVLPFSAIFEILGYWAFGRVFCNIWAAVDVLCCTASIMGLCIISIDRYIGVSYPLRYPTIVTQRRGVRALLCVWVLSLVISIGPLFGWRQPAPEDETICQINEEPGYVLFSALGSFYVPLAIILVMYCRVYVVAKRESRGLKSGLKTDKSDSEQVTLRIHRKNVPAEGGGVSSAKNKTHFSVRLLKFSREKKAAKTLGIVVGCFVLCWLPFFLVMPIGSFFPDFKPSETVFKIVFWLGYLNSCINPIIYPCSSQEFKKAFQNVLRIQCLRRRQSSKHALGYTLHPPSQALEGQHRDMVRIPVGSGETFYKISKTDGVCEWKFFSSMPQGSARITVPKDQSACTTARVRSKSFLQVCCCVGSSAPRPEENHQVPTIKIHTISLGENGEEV

[5] = target: 5-hydroxytryptamine receptor 6 (Homo sapiens, UniProt P50406); assay: Displacement of [3H]-LSD from human recombinant 5-HT6 receptor expressed in HEK293 cell membrane after 1 hr by Microbeta scintillation counting analysis; format: cell membranes
Sequence of 5-hydroxytryptamine receptor 6 (P50406 whole entry): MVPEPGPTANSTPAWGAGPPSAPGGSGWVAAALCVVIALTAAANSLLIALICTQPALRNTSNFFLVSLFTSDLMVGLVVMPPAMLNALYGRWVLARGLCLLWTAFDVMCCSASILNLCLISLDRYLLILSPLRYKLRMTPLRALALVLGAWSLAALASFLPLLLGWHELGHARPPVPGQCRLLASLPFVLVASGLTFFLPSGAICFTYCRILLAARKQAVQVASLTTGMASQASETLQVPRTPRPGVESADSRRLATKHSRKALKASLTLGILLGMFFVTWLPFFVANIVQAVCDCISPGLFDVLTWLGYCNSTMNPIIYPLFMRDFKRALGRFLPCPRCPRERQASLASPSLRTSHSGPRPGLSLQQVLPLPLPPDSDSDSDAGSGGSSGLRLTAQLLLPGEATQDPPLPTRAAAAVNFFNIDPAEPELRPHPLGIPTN

[6] = test system: HEK293; assay: Selectivity ratio of Ki for human recombinant 5-HT1A receptor expressed in HEK293 cell membrane to Ki for human recombinant 5-HT7 receptor expressed in HEK293 cell membrane; format: cell-based
[7] = target: T3, 5-hydroxytryptamine receptor 3A (Homo sapiens) (UniProt P46098); assay: Reversible inhibition of human 5-HT3A expressed in xenopus oocytes assessed as decrease in 5-HT-activated chloride current at […] by two-electrode voltage clamp technique; format: cell-based
T3 sequence (whole entry): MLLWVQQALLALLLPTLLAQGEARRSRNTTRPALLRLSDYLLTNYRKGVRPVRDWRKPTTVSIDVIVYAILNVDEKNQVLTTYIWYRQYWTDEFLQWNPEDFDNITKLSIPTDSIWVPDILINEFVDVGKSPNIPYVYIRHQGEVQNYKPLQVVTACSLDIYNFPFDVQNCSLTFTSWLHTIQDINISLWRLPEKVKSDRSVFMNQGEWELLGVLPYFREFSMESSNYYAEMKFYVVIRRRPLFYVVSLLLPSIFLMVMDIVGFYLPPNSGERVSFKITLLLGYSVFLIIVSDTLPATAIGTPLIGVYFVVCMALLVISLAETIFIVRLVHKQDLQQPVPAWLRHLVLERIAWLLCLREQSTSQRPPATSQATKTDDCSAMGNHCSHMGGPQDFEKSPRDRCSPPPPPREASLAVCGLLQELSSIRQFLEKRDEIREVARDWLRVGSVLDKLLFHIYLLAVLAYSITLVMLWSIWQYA

[8] = target: T4, Alpha-1D adrenergic receptor (Rattus norvegicus, UniProt P23944); assay: Antagonist activity at alpha1D adrenoceptor in Wistar (Krf:(WI) WU) rat endothelium-denuded thoracic aorta assessed as inhibition of noradrenaline-induced contraction after 30 mins; details: read-out: pA2 (converted)
T4 sequence (P23944 whole entry): T2 sequence (P23944 whole entry)

[9] = target: T5, Alpha-1B adrenergic receptor (Mus musculus, UniProt P97717); assay: Antagonist activity at alpha1B-adrenoceptor in Albino swiss mouse spleen assessed as inhibition of noradrenaline-induced contraction after 30 mins; details: read-out: pA2 (converted)
T5 sequence (P97717 whole entry): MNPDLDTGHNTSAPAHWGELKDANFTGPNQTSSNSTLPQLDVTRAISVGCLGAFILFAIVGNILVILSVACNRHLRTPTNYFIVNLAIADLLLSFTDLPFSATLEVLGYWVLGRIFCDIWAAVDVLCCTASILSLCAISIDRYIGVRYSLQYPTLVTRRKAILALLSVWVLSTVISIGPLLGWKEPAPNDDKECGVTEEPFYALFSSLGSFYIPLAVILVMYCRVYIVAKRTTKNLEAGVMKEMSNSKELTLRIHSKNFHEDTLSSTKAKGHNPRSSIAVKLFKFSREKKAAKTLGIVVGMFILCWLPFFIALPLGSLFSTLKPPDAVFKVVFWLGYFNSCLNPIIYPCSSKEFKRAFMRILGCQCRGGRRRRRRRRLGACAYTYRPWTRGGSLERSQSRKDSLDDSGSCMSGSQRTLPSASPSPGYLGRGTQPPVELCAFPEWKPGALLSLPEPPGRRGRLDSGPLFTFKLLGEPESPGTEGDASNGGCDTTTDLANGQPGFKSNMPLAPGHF

[10] = target: T6, Alpha-1A adrenergic receptor (Rattus norvegicus, UniProt P43140); assay: Antagonist activity at alpha1A adrenoceptor in Wistar (Krf:(WI) WU) rat endothelium-denuded tail artery assessed as inhibition of noradrenaline-induced contraction after 30 mins; details: read-out: pA2 (converted)
T6 sequence (P43140 whole entry): T2 sequence (P43140 whole entry)

Sequence of 5-hydroxytryptamine receptor 7 (P34969 whole entry): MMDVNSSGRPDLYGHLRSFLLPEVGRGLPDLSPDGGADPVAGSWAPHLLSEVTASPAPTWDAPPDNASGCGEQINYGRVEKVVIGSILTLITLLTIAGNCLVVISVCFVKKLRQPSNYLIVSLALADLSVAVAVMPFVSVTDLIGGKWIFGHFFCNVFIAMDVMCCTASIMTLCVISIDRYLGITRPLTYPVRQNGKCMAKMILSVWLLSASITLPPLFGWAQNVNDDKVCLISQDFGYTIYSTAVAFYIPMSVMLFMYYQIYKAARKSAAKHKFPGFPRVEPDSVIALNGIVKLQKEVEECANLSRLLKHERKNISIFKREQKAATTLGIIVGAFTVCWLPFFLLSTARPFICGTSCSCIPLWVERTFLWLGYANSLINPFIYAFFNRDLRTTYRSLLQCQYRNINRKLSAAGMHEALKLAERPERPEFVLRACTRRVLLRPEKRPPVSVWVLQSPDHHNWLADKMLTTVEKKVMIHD

Row | SMILES | Ki [1] | Ratio Ki [2] | Ki [3] | Ki [4] | Ki [5] | Ratio Ki [6] | inhibition [7] | Kb [8] | Kb [9] | Kb [10]
1 | CC1(C)C(=O)N(Cc2ccc(Cl)cc2Cl)C(=O)N1CCCCCN1CCN(c2ccc(Cl)c(Cl)c2)CC1.Cl | 78 nM | 9 | 301 nM | 673 nM | 314 nM | 4 |  |  |  | 
2 | COc1ccccc1N1CCN(CCCCCN2C(=O)N(C)C(=O)C2(C)c2ccccc2)CC1.Cl (stereo not given) | 34 nM |  | 23.3 nM | 42.3 nM | 14600 nM |  | 19.8% |  |  | 
3 | CN1C(=O)N(CCCCCN2CCN(c3ccccc3F)CC2)C(C)(c2ccccc2)C1=O.Cl (stereo not given) | 157 nM |  | 124 nM | 11.3 nM | 25500 nM |  |  | 3.01 nM | 7.21 nM | 48.3 nM
4 | COc1cccc(N2CCN(CCCCCN3C(=O)N(Cc4ccccc4)C(=O)C3(C)C)CC2)c1.Cl | 122 nM |  | 45 nM | 97.2 nM | 2930 nM |  |  |  |  | 
5 | COc1ccccc1N1CCN(CCCCCN2C(=O)N(Cc3ccccc3)C(=O)C2(C)C)CC1.Cl | 72 nM |  | 26 nM | 42.6 nM | 8610 nM |  |  |  |  | 
6 | CC1(C)C(=O)N(Cc2ccccc2)C(=O)N1CCCCCN1CCN(c2ccccc2)CC1.Cl | 70 nM |  | 79 nM | 68 nM | 4370 nM |  | 14.3% |  |  | 
7 | CC1(C)C(=O)N(Cc2ccc(Cl)cc2Cl)C(=O)N1CCCCCN1CCN(c2cccc(Cl)c2Cl)CC1.Cl | 31 nM | 31 | 88 nM | 968.8 nM | 395 nM | 3 | 13.8% |  |  | 
8 | CN1C(=O)N(CCCCCN2CCN(c3ccccc3)CC2)C(C)(c2ccccc2)C1=O.Cl (stereo not given) |  |  | 135 nM | 7.3 nM | 9600 nM |  |  | 7.31 nM | 48.8 nM | 38.6 nM
9 | CC1(C)C(=O)N(Cc2ccc(F)cc2)C(=O)N1CCCCCN1CCN(c2ccc(F)cc2)CC1.Cl | 46 nM |  | 305 nM | 36.8 nM | 1760 nM |  | 17.2% |  |  | 
10 | CC1(C)C(=O)N(Cc2ccccc2)C(=O)N1CCCCCN1CCN(c2ccc(F)cc2)CC1.Cl | 45 nM |  | 201 nM | 68.4 nM | 1940 nM |  |  |  |  | 
11 | CC1(C)C(=O)N(Cc2ccccc2)C(=O)N1CCCCCN1CCN(c2ccccc2F)CC1.Cl | 135 nM |  | 76 nM | 71 nM | 2510 nM |  |  |  |  | 
12 | CC1(C)C(=O)N(Cc2ccc(Cl)cc2Cl)C(=O)N1CCCCCN1CCN(c2ccc(Cl)cc2)CC1.Cl | 456 nM |  | 2180 nM | 758.5 nM | 2880 nM |  |  |  |  | 
13 | CN1C(=O)N(CC(O)CN2CCN(c3ccccc3)CC2)C(c2ccccc2)(c2ccccc2)C1=O (stereo not given) | 353 nM |  | 324 nM |  | 20400 nM |  |  |  |  | 
14 | COc1ccccc1N1CCN(CCCN2C(=O)N(C)C(=O)C2(c2ccccc2)c2ccccc2)CC1 | 210 nM |  | 6.5 nM |  | 29100 nM |  |  |  |  | 
15 | COc1ccccc1N1CCN(CCCCN2C(=O)N(C)C(=O)C2(c2ccccc2)c2ccccc2)CC1 | 16 nM |  | 0.8 nM |  | 3570 nM |  |  |  |  | 
16 | CCOc1ccccc1N1CCN(CCCN2C(=O)N(C)C(=O)C2(c2ccccc2)c2ccccc2)CC1 | 95 nM |  | 5.5 nM | 2600 nM | 4140 nM |  |  |  |  | 
17 | COc1ccccc1N1CCN(CC(O)CN2C(=O)NC(C)(c3ccc(F)cc3)C2=O)CC1.Cl (stereo not given) |  |  |  | 181.1 nM | 10800 nM |  | 16.6% |  |  | 
18 | CC1(C)C(=O)N(Cc2ccc(F)cc2)C(=O)N1CCCCCN1CCN(c2ccc(F)cc2F)CC1.Cl | 123 nM |  | 299 nM | 38.8 nM | 8100 nM |  |  |  |  | 
19 | CN1C(=O)N(CCCCCN2CCN(c3ccccc3)CC2)C(c2ccccc2)(c2ccccc2)C1=O.Cl | 77 nM |  | 13.2 nM | 6.7 nM | 3070 nM |  | 36.9% |  |  | 
20 | CC1(C)C(=O)N(Cc2ccccc2)C(=O)N1CCCCCN1CCN(c2ccc(F)cc2F)CC1.Cl | 172 nM |  | 235 nM | 71.5 nM | 7470 nM |  |  |  |  | 

Source: ChEMBL document CHEMBL3232706, “SAR-studies on the importance of aromatic ring topologies in search for selective 5-HT(7) receptor ligands among phenylpiperazine hydantoin derivatives” (Eur J Med Chem, 2014)
